Key:
[1] = (§1) Evaluation of pharmacokinetic parameters for Estradiol after multiple topical applying Estradiol transdermal systems to the abdomen or the buttocks of 17 healthy, postmenopausal female subjects.; assay type: ADME, organism-based; parameters: dose 0.075 mg/day, dose 0.1 mg/day, dose 0.0375 mg/day, dose 0.05 mg/day, route topical to abdomen, route topical to buttocks; details: human, in vivo, topical or ocular; dose 0.05 mg/day, dosed compound id 17, dosed compound name ESTRADIOL, gender female, regimen Multiple dose, route topical to abdomen, tissue Plasma; read-out: Cmin(80hr)
Homo sapiens = assay: as §1; assay type: ADME, organism-based; parameters: dose 0.075 mg/day, dose 0.1 mg/day, dose 0.0375 mg/day, dose 0.05 mg/day, route topical to abdomen, route topical to buttocks; details: in vivo, topical_or_ocular, dosed compound id 17, dosed compound name ESTRADIOL, gender female, regimen Multiple dose, tissue Plasma
[2] = dose 0.0375 mg/day, route topical to abdomen
[3] = dose 0.075 mg/day, route topical to abdomen
[4] = dose 0.1 mg/day, route topical to abdomen
[5] = dose 0.1 mg/day, route topical to buttocks

- concentration at 80 h [1]: 0.041 ng/mL
- Cavg (Homo sapiens; [2]): 0.034 ng/mL
- Cmin(84hr) (Homo sapiens; [2]): 0.03 ng/mL
- Cavg (Homo sapiens; dose 0.05 mg/day, route topical to abdomen): 0.057 ng/mL
- Cavg (Homo sapiens; [3]): 0.072 ng/mL
- Cmin(84hr) (Homo sapiens; [3]): 0.06 ng/mL
- Cavg (Homo sapiens; [4]): 0.089 ng/mL
- Cmin(84hr) (Homo sapiens; [4]): 0.09 ng/mL
- Cavg (Homo sapiens; [5]): 0.104 ng/mL
- Cmin(84hr) (Homo sapiens; [5]): 0.085 ng/mL
Structure (SMILES): C[C@]12CC[C@@H]3c4ccc(O)cc4CC[C@H]3[C@@H]1CC[C@@H]2O [ESTRADIOL]

Reference: ChEMBL document CHEMBL3832067, “DailyMed|setid=d28bec8f-762e-4f05-a20d-96a42970d6a7 | Estradiol - estradiol patch|Mylan Pharmaceuticals Inc”
